Experimental data reported in patent publication US5489591A, “S-triazine derivative and remedy for estrogen-dependent disease containing said derivative as effective component” (Zenyaku Kogyo Kabushiki Kaisha, priority 1992, dated 1996).

What was measured:
[1] = biological target: T1, cholesterol side-chain cleaving enzyme (Sus scrofa, UniProt P10612); test: Inhibitory activity against cholesterol side-chain cleaving enzyme (Pharmacological Test 2, porcine adrenal mitochondria); type: biochemical; details: substrate 5-cholesten-3β-ol 5.0×10^-6 M, read-out: SCC-IC50
T1 construct: porcine adrenal mitochondria; from tissue; host or cells: porcine adrenal mitochondria
T1 sequence (P10612 40-520): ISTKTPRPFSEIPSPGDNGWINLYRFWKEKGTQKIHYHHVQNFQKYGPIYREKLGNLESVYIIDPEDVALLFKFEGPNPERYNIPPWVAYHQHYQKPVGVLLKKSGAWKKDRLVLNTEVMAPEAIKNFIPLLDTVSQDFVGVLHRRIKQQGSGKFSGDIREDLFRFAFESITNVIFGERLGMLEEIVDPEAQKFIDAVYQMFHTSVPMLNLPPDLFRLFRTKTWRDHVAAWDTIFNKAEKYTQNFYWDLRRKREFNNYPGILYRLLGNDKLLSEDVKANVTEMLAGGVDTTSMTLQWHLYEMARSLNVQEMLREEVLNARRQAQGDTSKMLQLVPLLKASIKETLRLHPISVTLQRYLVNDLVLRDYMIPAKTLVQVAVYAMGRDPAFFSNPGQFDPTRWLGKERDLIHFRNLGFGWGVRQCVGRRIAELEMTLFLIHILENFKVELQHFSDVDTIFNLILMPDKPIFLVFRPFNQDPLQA
Protocol: Inhibitory activity against cholesterol side-chain cleaving enzyme was determined according to the method of M. Shikita and P. F. Hall [Proc. Nat. […] Briefly, the each compound to be tested was added to a reaction vial containing porcine adrenal mitochondria, [4-^14 C]5-cholesten-3β-ol (250 Bq/5 nmol) and NADPH. […] These were separated by extracting the reaction mixture with methylene-dichloride followed by purifying with thin-layer chromatography. Substrate (5-cholesten-3β-ol) and reaction product (3β-hydroxypregn-5-en-20-one) were respectively measured by a liquid scintillation counter. The measured quantity of 3β-hydroxypregn-5-en-20-one was used to determine cholesterol side-chain cleaving activity which was compared with the activity when incubated without inhibitor to calculate inhibition ratio (%).

Aromatase = biological target: T2, Aromatase (Homo sapiens, UniProt P11511); test: Aromatase inhibitory activity (Pharmacological Test 1, human placenta microsome); type: biochemical; details: substrate 4-androsten-3,17-dione 1.0×10^-6 M, read-out: AI-IC50
T2 construct: human placenta microsome; from tissue; host or cells: human placenta microsomes
T2 sequence (P11511 1-503): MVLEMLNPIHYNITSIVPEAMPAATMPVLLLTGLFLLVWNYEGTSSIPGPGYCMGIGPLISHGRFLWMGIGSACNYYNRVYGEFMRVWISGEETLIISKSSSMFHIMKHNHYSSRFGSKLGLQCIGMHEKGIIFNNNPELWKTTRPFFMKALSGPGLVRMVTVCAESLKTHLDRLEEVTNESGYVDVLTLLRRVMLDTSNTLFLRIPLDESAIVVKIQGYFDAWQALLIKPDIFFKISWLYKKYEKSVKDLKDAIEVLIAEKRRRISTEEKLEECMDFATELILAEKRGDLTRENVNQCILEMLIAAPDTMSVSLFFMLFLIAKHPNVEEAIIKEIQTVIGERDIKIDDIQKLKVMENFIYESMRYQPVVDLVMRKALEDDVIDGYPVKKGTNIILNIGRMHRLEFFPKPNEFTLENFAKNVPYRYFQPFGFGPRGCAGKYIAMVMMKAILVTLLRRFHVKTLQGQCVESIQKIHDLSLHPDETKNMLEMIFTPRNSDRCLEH
Protocol: Aromatase inhibitory activity was determined according to the method of E. A. Thompson and P. K. Siiteri [J. Biol. Chem., 249, 5364-5372 (1974)]. The each compound to be tested was added to a reaction vial containing human placenta microsome, [1β,2 β-^3 H]4-androsten-3,17-dione (3.3 kBq/500 pmol) and NADPH. […] The obtained [^3 H]H2 O was measured by a liquid scintillation counter. The measured quantity of [3H]H20 was used to determine aromatase activity, and was compared with the activity when incubated without inhibitor to calculate inhibition ratio (%).

CCC1(c2ccc(N)cc2)CCC(=O)NC1=O (stereo not drawn) [AG, aminoglutethimide, reference compound]
IC50 [1]: 66000 nM

CN(C)c1nc(N2CCOCC2)nc(-n2ccnc2)n1 [Compound 1, 2-(1-Imidazolyl)-4-dimethylamino-6-morpholino-1,3,5-triazine]
IC50 [1]: > 100000 nM | IC50 (Aromatase): 10 nM

CN(C)c1nc(N2CCCC2)nc(-n2ccnc2)n1 [Compound 2, 2-(1-Imidazolyl)-4-dimethylamino-6-(1-pyrrolidinyl)-1,3,5-triazine]
IC50 [1]: > 100000 nM | IC50 (Aromatase): 1300 nM

CN(C)c1nc(N2CCCCC2)nc(-n2ccnc2)n1 [Compound 3, 2-(1-Imidazolyl)-4-dimethylamino-6-piperidino-1,3,5-triazine]
IC50 [1]: > 100000 nM | IC50 (Aromatase): 770 nM

Cc1ncn(-c2nc(N(C)C)nc(-n3ccnc3)n2)c1C [Compound 5, 2-(1-Imidazolyl)-4-dimethylamino-6-(4,5-dimethyl-1-imidazolyl)-1,3,5-triazine]
IC50 [1]: > 100000 nM | IC50 (Aromatase): 200 nM

CC(C)c1nccn1-c1nc(N(C)C)nc(-n2ccnc2)n1 [Compound 6, 2-(1-Imidazolyl)-4-(2-isopropyl-1-imidazolyl)-6-dimethylamino-1,3,5-triazine]
IC50 [1]: > 100000 nM | IC50 (Aromatase): 4300 nM

c1ccc(N2CCN(c3nc(N4CCOCC4)nc(-n4ccnc4)n3)CC2)nc1 [Compound 8, 2-(1-Imidazolyl)-4-morpholino-6-[4-(2-pyridyl)-1-piperazinyl]-1,3,5-triazine]
IC50 [1]: 54000 nM | IC50 (Aromatase): 11 nM

c1ccc(CN2CCN(c3nc(N4CCOCC4)nc(-n4ccnc4)n3)CC2)cc1 [Compound 9, 2-(4-Benzyl-1-piperazinyl)-4-(1-imidazolyl)-6-morpholino-1,3,5-triazine]
IC50 [1]: 15000 nM | IC50 (Aromatase): 17 nM

CC1CN(c2nc(N3CCOCC3)nc(-n3ccnc3)n2)CC(C)O1 (stereo not drawn) [Compound 10, 2-(1-Imidazolyl)-4-(2,6-dimethylmorpholino)-6-morpholino-1,3,5-triazine]
IC50 [1]: > 100000 nM | IC50 (Aromatase): 31 nM

CC1CC(C)CN(c2nc(N3CCOCC3)nc(-n3ccnc3)n2)C1 (stereo not drawn) [Compound 11, 2-(1-Imidazolyl)-4-(3,5-dimethylpiperidino)-6-morpholino-1,3,5-triazine]
IC50 [1]: 19000 nM | IC50 (Aromatase): 11 nM

c1cn(-c2nc(N3CCOCC3)nc(N3CCC4(CC3)OCCO4)n2)cn1 [Compound 12, 2-(4,4-Ethylenedioxypiperidino)-4-(1-imidazolyl)-6-morpholino-1,3,5-triazine]
IC50 [1]: > 100000 nM | IC50 (Aromatase): 24 nM

CN(c1ccccc1)c1nc(N2CCOCC2)nc(-n2ccnc2)n1 [Compound 14, 2-(1-Imidazolyl)-4-(N-methyl-N-phenylamino)-6-morpholino-1,3,5-triazine]
IC50 [1]: 31000 nM | IC50 (Aromatase): 6.7 nM

c1cn(-c2nc(N3CCCC3)nc(N3CCCC3)n2)cn1 [Compound 17, 2-(1-Imidazolyl)-4,6-bis(1-pyrrolidinyl)-1,3,5-triazine]
IC50 [1]: > 100000 nM | IC50 (Aromatase): 310 nM

c1cn(-c2nc(N3CCCCC3)nc(N3CCCCC3)n2)cn1 [Compound 18, 2-(1-Imidazolyl)-4,6-dipiperidino-1,3,5-triazine]
IC50 [1]: > 100000 nM | IC50 (Aromatase): 310 nM

c1cn(-c2nc(N3CCSCC3)nc(N3CCSCC3)n2)cn1 [Compound 21, 2-(1-Imidazolyl)-4,6-bis(thiomorpholino)-1,3,5-triazine]
IC50 [1]: 100000 nM | IC50 (Aromatase): 5.1 nM

c1cn(-c2nc(N3CCOCC3)nc(-n3ccnc3)n2)cn1 [Compound 23, 2,4-Bis(1-imidazolyl)-6-morpholino-1,3,5-triazine]
IC50 [1]: > 100000 nM | IC50 (Aromatase): 21 nM

CN(C)c1nc(-n2ccnc2)nc(-n2ccnc2)n1 [Compound 24, 2,4-Bis(1-imidazolyl)-6-dimethylamino-1,3,5-triazine]
IC50 [1]: 80000 nM | IC50 (Aromatase): 550 nM

CCN(CC)c1nc(-n2ccnc2)nc(-n2ccnc2)n1 [Compound 25, 2,4-Bis(1-imidazolyl)-6-diethylamino-1,3,5-triazine]
IC50 [1]: 25000 nM | IC50 (Aromatase): 60 nM

CN(C)c1nc(N(C)C)nc(N(C)C)n1 [HMM, hexamethylmelamine, reference compound]
IC50 [1]: > 100000 nM
